Values joined by “and” are separate entries in the source; they are usually repeats but may differ in a detail not shown here. Equal entries are not always repeated.
Key:
Design in all cases: purchased Milipore (Millipore)
[1] = biological target: T1, Human adrenergic α2A receptor (Homo sapiens, UniProt P08913); assay: Radioligand binding, adrenergic α2A (Protocol Group B); conditions: Protocol Group B; for Percentage inhibition of ligand binding, Adrenergic α2A (0.1 μM): 0.1 μM compound; for Percentage inhibition of ligand binding, Adrenergic α2A (0.3 μM) / inhibition at 0.3 µM: 0.3 μM compound; for inhibition at 0.3 µM: read-out: Percentage inhibition of ligand binding, Adrenergic α2A (0.3 μM)
T1 sequence (P08913 1-465): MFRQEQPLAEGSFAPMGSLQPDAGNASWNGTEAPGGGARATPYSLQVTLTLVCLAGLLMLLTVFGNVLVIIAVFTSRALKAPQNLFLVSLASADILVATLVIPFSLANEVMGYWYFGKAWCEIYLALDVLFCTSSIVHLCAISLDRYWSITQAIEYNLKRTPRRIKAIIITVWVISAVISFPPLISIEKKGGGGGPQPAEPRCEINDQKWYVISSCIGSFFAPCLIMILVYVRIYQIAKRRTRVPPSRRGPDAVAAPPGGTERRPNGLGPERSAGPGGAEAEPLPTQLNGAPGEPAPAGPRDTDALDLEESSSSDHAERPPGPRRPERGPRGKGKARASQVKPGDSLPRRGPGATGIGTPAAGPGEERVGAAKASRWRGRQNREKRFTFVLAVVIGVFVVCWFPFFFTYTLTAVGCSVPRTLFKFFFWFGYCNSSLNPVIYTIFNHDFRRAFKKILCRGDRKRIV
Protocol: To evaluate the activity of compounds in radioligand binding assays, Human adrenergic α2A receptor obtained from recombinant cell membrane from Milipore. Binding experiments were carried out in Tris-HCl buffer (50 mM Tris-HCl buffer, pH 7.4, 5 mM Mgcl2, 1 mM Cacl2, 0.2% BSA) as recommended by Milipore. Compounds were incubated with 2 nM [^3H]MK-912 for 60 min at 25° C. Non-specific binding was estimated in the presence of 10 μM Rauwolscine. Receptor proteins were harvested on 0.33% PEI(poly-ethylenemine) soaked GFC filter mat, the specifically bound [^3H]MK-912 were counted to determine total binding. Compounds were screened at various concentrations, using 1% DMSO as vehicle. percent inhibition of specific binding was determined. Biochemical assay results are presented as the percent Inhibition of specific binding in Table B1b, or estimated Ki values in Table B1c.

[2] = biological target: T2, Human adrenergic α2B receptor (Homo sapiens, UniProt P18089); assay: Radioligand binding, adrenergic α2B (Protocol Group B); conditions: Protocol Group B; for Percentage inhibition of ligand binding, Adrenergic α2B (10 nM): 0.01 µM; for Percentage inhibition of ligand binding, Adrenergic α2B (30 nM) / inhibition at 0.03 µM: 30 nM compound; for Percentage inhibition of ligand binding, Adrenergic α2B (30 nM): 0.03 µM; for inhibition at 0.03 µM: read-out: Percentage inhibition of ligand binding, Adrenergic α2B (30 nM)
T2 sequence (P18089 1-450): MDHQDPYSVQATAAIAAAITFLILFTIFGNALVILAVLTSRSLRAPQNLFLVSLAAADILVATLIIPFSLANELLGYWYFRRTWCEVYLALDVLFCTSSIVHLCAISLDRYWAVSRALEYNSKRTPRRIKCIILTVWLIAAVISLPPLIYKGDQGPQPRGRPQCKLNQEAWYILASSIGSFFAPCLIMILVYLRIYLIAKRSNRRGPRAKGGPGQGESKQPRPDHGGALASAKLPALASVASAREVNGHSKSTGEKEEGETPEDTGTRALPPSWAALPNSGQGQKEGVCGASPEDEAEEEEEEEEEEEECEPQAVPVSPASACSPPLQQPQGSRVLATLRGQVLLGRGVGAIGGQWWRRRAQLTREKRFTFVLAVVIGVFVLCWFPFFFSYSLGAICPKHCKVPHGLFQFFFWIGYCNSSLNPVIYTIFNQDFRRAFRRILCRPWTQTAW
Protocol: To evaluate the activity of compounds in radioligand binding assays, Human adrenergic α2B receptor obtained from recombinant cell membrane from Milipore. Binding experiments were carried out in Tris-HCl buffer (50 mM Tris-HCl buffer, pH 7.4, 5 mM Mgcl2, 1 mM Cacl2, 0.2% BSA) as recommended by Milipore. […] Non-specific binding was estimated in the presence of 10 μM Rauwolscine. […] Compounds were screened at various concentrations, using 1% DMSO as vehicle. Biochemical assay results are presented as the percent Inhibition of specific binding in Table B1b, or estimated Ki values in Table B1c.

[3] = biological target: T3, Human adrenergic α1B receptor (Homo sapiens, UniProt P35368); assay: Radioligand binding, adrenergic α1B (Protocol Group B); conditions: Protocol Group B; for Percentage inhibition of ligand binding, Adrenergic α1B (0.1 μM) / inhibition at 0.1 µM: 0.1 μM compound; for Percentage inhibition of ligand binding, Adrenergic α1B (0.3 μM) / inhibition at 0.3 µM: 0.3 μM compound; for inhibition at 0.1 µM: read-out: Percentage inhibition of ligand binding, Adrenergic α1B (0.1 μM); for inhibition at 0.3 µM: read-out: Percentage inhibition of ligand binding, Adrenergic α1B (0.3 μM)
T3 sequence (P35368 1-520): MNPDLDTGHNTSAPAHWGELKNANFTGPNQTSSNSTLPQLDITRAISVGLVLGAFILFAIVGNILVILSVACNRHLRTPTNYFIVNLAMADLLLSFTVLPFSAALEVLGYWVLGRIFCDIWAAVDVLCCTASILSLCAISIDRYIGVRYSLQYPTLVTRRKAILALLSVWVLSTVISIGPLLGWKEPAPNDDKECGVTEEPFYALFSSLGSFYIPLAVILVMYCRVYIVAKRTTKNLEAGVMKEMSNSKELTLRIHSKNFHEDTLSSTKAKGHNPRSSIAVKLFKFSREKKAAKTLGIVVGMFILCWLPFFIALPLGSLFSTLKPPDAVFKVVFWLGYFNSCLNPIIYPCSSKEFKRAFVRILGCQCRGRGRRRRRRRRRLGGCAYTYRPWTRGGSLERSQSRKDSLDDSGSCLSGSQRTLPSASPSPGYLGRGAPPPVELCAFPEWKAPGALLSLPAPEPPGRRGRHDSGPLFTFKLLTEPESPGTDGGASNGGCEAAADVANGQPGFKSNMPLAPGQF
Protocol: To evaluate the activity of compounds in radioligand binding assays, Human adrenergic α1B receptor obtained from recombinant cell membrane from Milipore. Binding experiments were carried out in Tris-HCl buffer (50 mM Tris-HCl buffer, pH 7.4, 10 mM Mgcl2, 1 mM EDTA) as recommended by Milipore. Compounds were incubated with 0.3 nM [^3H]Prazosin for 60 min at 25° C. Non-specific binding was estimated in the presence of 10 μM prazosin. Receptor proteins were harvested on 0.33% PEI(poly-ethylenemine) soaked GFC filter mat, the specifically bound [^3H]Prazosin were counted to determine total binding. Compounds were screened at various concentrations, using 1% DMSO as vehicle. percent inhibition of specific binding was determined. Biochemical assay results are presented as the percent Inhibition of specific binding in Table B1b, or estimated Ki values in Table B1c.

SMILES | Percentage inhibition of ligand binding, Adrenergic α2A (0.1 μM) [1] | Percentage inhibition of ligand binding, Adrenergic α2A (0.3 μM) [1] | Percentage inhibition of ligand binding, Adrenergic α2B (10 nM) ([2]; 10 nM compound) | Percentage inhibition of ligand binding, Adrenergic α2B (30 nM) [2] | Percentage inhibition of ligand binding, Adrenergic α2B (0.1 μM) ([2]; 0.1 μM compound) | Percentage inhibition of ligand binding, Adrenergic α1B (0.1 μM) [3] | Percentage inhibition of ligand binding, Adrenergic α1B (0.3 μM) [3] | inhibition at 0.3 µM [1] | inhibition at 0.01 µM ([2]; 10 nM compound, read-out: Percentage inhibition of ligand binding, Adrenergic α2B (10 nM)) | inhibition at 0.03 µM [2] | inhibition at 0.1 µM [3] | inhibition at 0.3 µM [3] | inhibition at 0.1 µM ([2]; 0.1 μM compound, read-out: Percentage inhibition of ligand binding, Adrenergic α2B (0.1 μM)) | Ki ([2]; estimated Ki, read-out: Ki α2B)
Cc1ccc2c(c1)c1c(n2CC(OC(N)=O)c2ccncc2)CCN(C)C1 (single isomer, unassigned) [8a] | 20% | 14% | 12% | 21% | 48% | 18% | 22% |  |  |  |  |  |  | 
Cc1ccc2c(c1)c1c(n2CC(OC(N)=O)c2ccncc2)CCN(C)C1 (single isomer, unassigned) [8b] | 7% |  |  |  | 26% |  |  | 10% | 13% | 27% | 9% | 14% |  | 
Cc1ccc2c(c1)c1c(n2CC(C)(O)c2ccncc2)CCN2CCCC12 (single isomer, unassigned) [13c] | 11% |  | −1% |  |  | 9% | 28% | 21% |  | 30% |  |  | 74% | 
Cc1ccc2c(c1)c1c(n2CC(C)(O)c2ccncc2)CCN2CCCC12 (single isomer, unassigned) [13d] | 3% | 20% | 7% | 27% | 76% | −7% | 9% |  |  |  |  |  |  | 
Cc1ccc2c(c1)c1c(n2CC(C)(O)c2cccnc2)CC(CO)N(C)C1 (single isomer, unassigned) [15a] | 14% | 14% | 19% | 48% | 68% |  |  |  |  |  | 17% | 25% |  | 
Cc1ccc2c(c1)c1c(n2CC(C)(O)c2cccnc2)CC(CO)N(C)C1 (single isomer, unassigned) [15b] | 1% | 0% | 6% | −11% | 16% | 12% | 16% |  |  |  |  |  |  | 
Cc1ccc2c(c1)c1c(n2CC(C)(O)c2cccnc2)CCN(C)C1CO (single isomer, unassigned) [16a] | 8% |  | −1% | −14% | 1% | 16% |  | 9% |  |  |  | 9% |  | 
Cc1ccc2c(c1)c1c(n2CC(C)(O)c2cccnc2)CCN(C)C1CO (single isomer, unassigned) [16b] | −2% | 10% | 4% | −11% | 7% | −3% | 5% |  |  |  |  |  |  | 
OC(Cn1c2c(c3cc(F)ccc31)C1CCCN1CC2)c1ccncc1 (single isomer, unassigned) [18a] | −7% | 38% | 41% | 58% | 80% | 20% | 55% |  |  |  |  |  |  | 
OC(Cn1c2c(c3cc(F)ccc31)C1CCCN1CC2)c1ccncc1 (single isomer, unassigned) [18c] | 7% | 0% | 17% | 13% | 22% | 5% | 6% |  |  |  |  |  |  | 
Cc1ccc2c(c1)c1c(n2CC(O)c2ccncc2)CCN2CCCC12 (single isomer, unassigned) [Compound No. 178a] |  |  |  |  |  | 73% |  |  |  |  |  |  |  | 
Cc1ccc2c(c1)c1c(n2CC(O)c2ccncc2)CCN2CCCC12 (single isomer, unassigned) [Compound No. 178b] | 55% |  |  |  |  | 69% |  |  |  |  |  |  |  | 
Cc1ccc2c(c1)c1c(n2CC(O)c2ccncc2)CCN2CCCC12 (single isomer, unassigned) [Compound No. 178c] | 35% |  |  |  |  | 94% and 96% |  |  |  |  |  |  |  | 
CC(O)(Cn1c2c(c3cc(F)ccc31)C1CCCN1CC2)c1cccnc1 (stereo not shown) [compound 51] |  |  |  |  |  |  |  |  |  |  |  |  |  | 1.58 nM
